Measurements: US6358885B1, “Substituted phenylheterocyclic herbicides” (Mississippi State University, priority 1992, dated 2002)

Tests used:
Assay in all cases: Test B preemergence/postemergence greenhouse plant response rating 0 to 10
[1] = tested on: wild buckwheat; assay type: in vivo, Polygonum convolvulus; conditions: for Plant response rating, Wild buckwheat: 0 to 10 scale
In short: (§1)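 Planted seeds are treated preemergence with compound dissolved in a non-phytotoxic solvent, while postemergence applications go onto plants of two to eighteen cm. Plants stay in the greenhouse twelve to sixteen days and are then rated visually relative to controls.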

[2] = tested on: cheatgrass; assay type: in vivo, Bromus secalinus; conditions: for Plant response rating, Cheatgrass: 0 to 10 scale
In short: as §1

[3] = tested on: chickweed; assay type: in vivo, Stellaria media; conditions: for Plant response rating, Chickweed: 0 to 10 scale
In short: as §1

[4] = tested on: wheat; assay type: in vivo, Triticum aestivum; conditions: for Plant response rating, Wheat: 0 to 10 scale
In short: as §1

[5] = tested on: barley; assay type: in vivo, Hordeum vulgare; conditions: for Plant response rating, Barley: 0 to 10 scale
In short: as §1

[6] = tested on: rape; assay type: in vivo, Brassica napus; conditions: for Plant response rating, Rape: 0 to 10 scale
In short: as §1

[7] = tested on: cocklebur; assay type: in vivo, Xanthium pensylvanicum; conditions: for Plant response rating, Cocklebur: Rate 50 g/ha, 0 to 10 scale
In short: as §1

[8] = tested on: rice; assay type: in vivo, Oryza sativa; conditions: for Plant response rating, Rice: 0 to 10 scale
In short: as §1

[9] = tested on: morningglory; assay type: in vivo, Ipomoea hederacea; conditions: for Plant response rating, Morningglory: 0 to 10 scale
In short: as §1

[10] = tested on: sorghum; assay type: in vivo, Sorghum bicolor; conditions: for Plant response rating, Sorghum: 0 to 10 scale
In short: as §1

[11] = tested on: lambsquarters; assay type: in vivo, Chenopodium album; conditions: for Plant response rating, Lambsquarter: 0 to 10 scale
In short: as §1

[12] = tested on: soybean; assay type: in vivo, Glycine max; conditions: for Plant response rating, Soybean: 0 to 10 scale
In short: as §1

[13] = tested on: giant foxtail; assay type: in vivo, Setaria faberii; conditions: for Plant response rating, Giant foxtail: 0 to 10 scale
In short: as §1

[14] = tested on: purple nutsedge; assay type: in vivo, Cyperus rotundus; conditions: for Plant response rating, Nutsedge: 0 to 10 scale
In short: as §1

[15] = tested on: wild oat; assay type: in vivo, Avena fatua; conditions: for Plant response rating, Wild oat: 0 to 10 scale
In short: as §1

[16] = tested on: corn; assay type: in vivo, Zea mays; conditions: for Plant response rating, Corn: 0 to 10 scale
In short: as §1

[17] = tested on: bedstraw; assay type: in vivo, Galium aparine; conditions: for Plant response rating, Bedstraw: 0 to 10 scale
In short: as §1

[18] = tested on: crabgrass; assay type: in vivo, Digitaria spp.; conditions: for Plant response rating, Crabgrass: 0 to 10 scale
In short: as §1

[19] = tested on: blackgrass; assay type: in vivo, Alopecurus myosuroides; conditions: for Plant response rating, Blackgrass: 0 to 10 scale
In short: as §1

[20] = tested on: cotton; assay type: in vivo, Gossypium hirsutum; conditions: for Plant response rating, Cotton: 0 to 10 scale
In short: as §1

[21] = tested on: velvetleaf; assay type: in vivo, Abutilon theophrasti; conditions: for Plant response rating, Velvetleaf: 0 to 10 scale
In short: as §1

[22] = tested on: barnyardgrass; assay type: in vivo, Echinochloa crus-galli; conditions: for Plant response rating, Barnyardgrass: 0 to 10 scale
In short: as §1

[23] = tested on: sugar beet; assay type: in vivo, Beta vulgaris; conditions: for Plant response rating, Sugar beet: 0 to 10 scale
In short: as §1

## FCCCOc1cc(-c2nn3c(c2Cl)CCCC3)c(F)cc1Cl [Compound 79]
[1]; POSTEMERGENCE, Rate 50 g/ha
  Plant response rating, Wild buckwheat: 10
[1]; PREEMERGENCE, Rate 50 g/ha
  Plant response rating, Wild buckwheat: 0
[1]; PREEMERGENCE, Rate 200 g/ha
  Plant response rating (0 to 10 scale), Wild buckwheat: 9
[1]; Rate 200 g/ha, POSTEMERGENCE
  Plant response rating, Wild buckwheat: 10
[2]; POSTEMERGENCE, Rate 50 g/ha
  Plant response rating, Cheatgrass: 3
[2]; PREEMERGENCE, Rate 50 g/ha
  Plant response rating, Cheatgrass: 2
[2]; PREEMERGENCE, Rate 200 g/ha
  Plant response rating (0 to 10 scale), Cheatgrass: 4
[2]; Rate 200 g/ha, POSTEMERGENCE
  Plant response rating, Cheatgrass: 4
[3]; POSTEMERGENCE, Rate 50 g/ha
  Plant response rating, Chickweed: 4
[3]; PREEMERGENCE, Rate 50 g/ha
  Plant response rating, Chickweed: 0
[3]; PREEMERGENCE, Rate 200 g/ha
  Plant response rating (0 to 10 scale), Chickweed: 3
[3]; Rate 200 g/ha, POSTEMERGENCE
  Plant response rating, Chickweed: 5
[4]; POSTEMERGENCE, Rate 50 g/ha
  Plant response rating, Wheat: 5
[4]; PREEMERGENCE, Rate 50 g/ha
  Plant response rating, Wheat: 0
[4]; PREEMERGENCE, Rate 200 g/ha
  Plant response rating (0 to 10 scale), Wheat: 2
[4]; Rate 200 g/ha, POSTEMERGENCE
  Plant response rating, Wheat: 6
[5]; POSTEMERGENCE, Rate 50 g/ha
  Plant response rating, Barley: 4
[5]; PREEMERGENCE, Rate 50 g/ha
  Plant response rating, Barley: 0
[5]; PREEMERGENCE, Rate 200 g/ha
  Plant response rating (0 to 10 scale), Barley: 2
[5]; Rate 200 g/ha, POSTEMERGENCE
  Plant response rating, Barley: 4
[6]; POSTEMERGENCE, Rate 50 g/ha
  Plant response rating, Rape: 8
[6]; PREEMERGENCE, Rate 50 g/ha
  Plant response rating, Rape: 3
[6]; PREEMERGENCE, Rate 200 g/ha
  Plant response rating (0 to 10 scale), Rape: 6
[6]; Rate 200 g/ha, POSTEMERGENCE
  Plant response rating, Rape: 9
[7]; POSTEMERGENCE
  Plant response rating, Cocklebur: 8
[7]; PREEMERGENCE
  Plant response rating, Cocklebur: 0
[7]; PREEMERGENCE, Rate 200 g/ha
  Plant response rating (0 to 10 scale), Cocklebur: 6
[8]; POSTEMERGENCE, Rate 50 g/ha
  Plant response rating, Rice: 5
[8]; PREEMERGENCE, Rate 50 g/ha
  Plant response rating, Rice: 0
[8]; PREEMERGENCE, Rate 200 g/ha
  Plant response rating (0 to 10 scale), Rice: 0
[8]; Rate 200 g/ha, POSTEMERGENCE
  Plant response rating, Rice: 6
[9]; POSTEMERGENCE, Rate 50 g/ha
  Plant response rating, Morningglory: 10
[9]; PREEMERGENCE, Rate 50 g/ha
  Plant response rating, Morningglory: 0
[9]; PREEMERGENCE, Rate 200 g/ha
  Plant response rating (0 to 10 scale), Morningglory: 7
[9]; Rate 200 g/ha, POSTEMERGENCE
  Plant response rating, Morningglory: 10
[10]; POSTEMERGENCE, Rate 50 g/ha
  Plant response rating, Sorghum: 6
[10]; PREEMERGENCE, Rate 50 g/ha
  Plant response rating, Sorghum: 0
[10]; PREEMERGENCE, Rate 200 g/ha
  Plant response rating (0 to 10 scale), Sorghum: 0
[10]; Rate 200 g/ha, POSTEMERGENCE
  Plant response rating, Sorghum: 7
[11]; POSTEMERGENCE, Rate 50 g/ha
  Plant response rating, Lambsquarter: 9
[11]; PREEMERGENCE, Rate 50 g/ha
  Plant response rating, Lambsquarter: 9
[11]; PREEMERGENCE, Rate 200 g/ha
  Plant response rating (0 to 10 scale), Lambsquarter: 10
[11]; Rate 200 g/ha, POSTEMERGENCE
  Plant response rating, Lambsquarter: 10
[12]; POSTEMERGENCE, Rate 50 g/ha
  Plant response rating, Soybean: 7
[12]; PREEMERGENCE, Rate 50 g/ha
  Plant response rating, Soybean: 0
[12]; PREEMERGENCE, Rate 200 g/ha
  Plant response rating (0 to 10 scale), Soybean: 0
[12]; Rate 200 g/ha, POSTEMERGENCE
  Plant response rating, Soybean: 8
[13]; POSTEMERGENCE, Rate 50 g/ha
  Plant response rating, Giant foxtail: 4
[13]; PREEMERGENCE, Rate 50 g/ha
  Plant response rating, Giant foxtail: 3
[13]; PREEMERGENCE, Rate 200 g/ha
  Plant response rating (0 to 10 scale), Giant foxtail: 9
[13]; Rate 200 g/ha, POSTEMERGENCE
  Plant response rating, Giant foxtail: 6
[14]; POSTEMERGENCE, Rate 50 g/ha
  Plant response rating, Nutsedge: 0
[14]; PREEMERGENCE, Rate 50 g/ha
  Plant response rating, Nutsedge: 0
[14]; PREEMERGENCE, Rate 200 g/ha
  Plant response rating (0 to 10 scale), Nutsedge: 0
[14]; Rate 200 g/ha, POSTEMERGENCE
  Plant response rating, Nutsedge: 0
[15]; POSTEMERGENCE, Rate 50 g/ha
  Plant response rating, Wild oat: 4
[15]; PREEMERGENCE, Rate 50 g/ha
  Plant response rating, Wild oat: 3
[15]; PREEMERGENCE, Rate 200 g/ha
  Plant response rating (0 to 10 scale), Wild oat: 6
[15]; Rate 200 g/ha, POSTEMERGENCE
  Plant response rating, Wild oat: 5
[16]; POSTEMERGENCE, Rate 50 g/ha
  Plant response rating, Corn: 3
[16]; PREEMERGENCE, Rate 50 g/ha
  Plant response rating, Corn: 0
[16]; PREEMERGENCE, Rate 200 g/ha
  Plant response rating (0 to 10 scale), Corn: 0
[16]; Rate 200 g/ha, POSTEMERGENCE
  Plant response rating, Corn: 5
[17]; POSTEMERGENCE, Rate 50 g/ha
  Plant response rating, Bedstraw: 5
[17]; PREEMERGENCE, Rate 50 g/ha
  Plant response rating, Bedstraw: 2
[17]; PREEMERGENCE, Rate 200 g/ha
  Plant response rating (0 to 10 scale), Bedstraw: 7
[17]; Rate 200 g/ha, POSTEMERGENCE
  Plant response rating, Bedstraw: 7
[18]; POSTEMERGENCE, Rate 50 g/ha
  Plant response rating, Crabgrass: 3
[18]; PREEMERGENCE, Rate 50 g/ha
  Plant response rating, Crabgrass: 4
[18]; PREEMERGENCE, Rate 200 g/ha
  Plant response rating (0 to 10 scale), Crabgrass: 6
[18]; Rate 200 g/ha, POSTEMERGENCE
  Plant response rating, Crabgrass: 5
[19]; POSTEMERGENCE, Rate 50 g/ha
  Plant response rating, Blackgrass: 3
[19]; PREEMERGENCE, Rate 50 g/ha
  Plant response rating, Blackgrass: 1
[19]; PREEMERGENCE, Rate 200 g/ha
  Plant response rating (0 to 10 scale), Blackgrass: 5
[19]; Rate 200 g/ha, POSTEMERGENCE
  Plant response rating, Blackgrass: 5
[20]; POSTEMERGENCE, Rate 50 g/ha
  Plant response rating, Cotton: 10
[20]; PREEMERGENCE, Rate 50 g/ha
  Plant response rating, Cotton: 0
[20]; PREEMERGENCE, Rate 200 g/ha
  Plant response rating (0 to 10 scale), Cotton: 0
[20]; Rate 200 g/ha, POSTEMERGENCE
  Plant response rating, Cotton: 10
[21]; POSTEMERGENCE, Rate 50 g/ha
  Plant response rating, Velvetleaf: 8
[21]; PREEMERGENCE, Rate 50 g/ha
  Plant response rating, Velvetleaf: 5
[21]; PREEMERGENCE, Rate 200 g/ha
  Plant response rating (0 to 10 scale), Velvetleaf: 10
[21]; Rate 200 g/ha, POSTEMERGENCE
  Plant response rating, Velvetleaf: 10
[22]; POSTEMERGENCE, Rate 50 g/ha
  Plant response rating, Barnyardgrass: 4
[22]; PREEMERGENCE, Rate 50 g/ha
  Plant response rating, Barnyardgrass: 3
[22]; PREEMERGENCE, Rate 200 g/ha
  Plant response rating (0 to 10 scale), Barnyardgrass: 6
[22]; Rate 200 g/ha, POSTEMERGENCE
  Plant response rating, Barnyardgrass: 7
[23]; POSTEMERGENCE, Rate 50 g/ha
  Plant response rating, Sugar beet: 10
[23]; PREEMERGENCE, Rate 50 g/ha
  Plant response rating, Sugar beet: 9
[23]; PREEMERGENCE, Rate 200 g/ha
  Plant response rating (0 to 10 scale), Sugar beet: 10
[23]; Rate 200 g/ha, POSTEMERGENCE
  Plant response rating, Sugar beet: 10
